From patent US10369113B2, “Prostate specific membrane antigen (PSMA) targeted nanoparticles for therapy of prostate cancer” (The Johns Hopkins University, priority 2007, dated 2019) come the findings set out here.

For the test, the system named is PSMA-expressing LNCaP human prostate cancer cells. In words: In vitro toxicity of nanoparticles (MTT assay after 15 min exposure). As to conditions: 48 hrs after 15 min exposure, 100 nM docetaxel equivalent, read-out: inhibition of cell growth. It is filed as cell-based. How it is done:
The cytotoxicity of the nontargeted particles in that study was ascribed to a combination of nonspecific uptake and to the expected nonspecific release of docetaxel from the particle into the media over the exposure period. […] Following determination of the amount of docetaxel loading in the particles, PSMA-expressing LNCaP human prostate cancer cells were exposed to equimolar amounts (i.e. 100 nM) of loaded nanoparticles or free docetaxel. To minimize the effects of nonspecific endocytosis, cells were only exposed to test compounds for 15 min at which time cells were washed and then placed in drug free media. Cell counts were determined by converting absorbance from MTT assay to cell number based on a standard curve of absorbance from MTT assay of known amounts of LNCaP cells. In this assay, 48 hrs following exposure, the growth of cells exposed to the nontargeted nanoPEG particles was inhibited by 65% while cell growth was inhibited 89% by docetaxel and 95% by the nanoPSMAi2 particles. […]
Cytotoxicity assays were performed as described previously (Denmeade, S. R., et al. J Natl Cancer Inst, 95: 990-1000, 2003). […] Cells were then incubated in media at 37° C. and at the end of 48 hours and 96 hours, effects on cell growth were determined using the MTT assay (Promega, WI) according to manufacturer's instructions.
For orientation: Tetrazolium dyes change colour on reduction, which living cells bring about.

One may read the inhibition as the relative decrease from the control value, in per cent. For the molecule `CC(=O)O[C@@]12CO[C@@H]1C[C@H](O)[C@@]1(C)C(=O)[C@H](O)C3=C(C)[C@@H](OC(=O)[C@H](O)[C@@H](NC(=O)OC(C)(C)C)c4ccccc4)C[C@@](O)([C@@H](OC(=O)c4ccccc4)[C@H]21)C3(C)C` [docetaxel], the inhibition at 0.1 µM was determined as 89%.
